From patent publication US6432922B1 (Corvas International, Inc., priority 1998, dated 2002)
Read-outs that look alike come from different tables or passages of the source. Starred links: 1 amine or outer side, 2 acyl side, 3 side chain; linkers in the order of their positions; H or OH if unused. Non-standard residues stand in square brackets, D forms with d. Residues, ends and D or L forms follow the SMILES beside them. *: point of attachment. cisHyp = O=C(O)[C@@H]1C[C@H](O)CN1; Hydrocinnamoyl = O=C(CCc1ccccc1)*; AllylGly = C=CC[C@H](N)C(=O)O; ΔPro = O=C(O)[C@@H]1C=CCN1; Isovaleryl = CC(C)CC(=O)*; Pra = C#CC[C@H](N)C(=O)O; dDap = NC[C@@H](N)C(=O)O; Cbz = O=C(OCc1ccccc1)*; CO = O=C([*:1])[*:2]; NHBn = c1ccc(CN*)cc1; Moc = COC(=O)*

Key:
Human rt-PA (Activase) = target: T1, Human rt-PA (Activase) (Homo sapiens, UniProt P00750); assay: Recombinant tissue plasminogen activator (rt-PA) chromogenic assay; assay type: biochemical; settings: 30 minute preincubation, HBSA buffer; read-out: tPA IC50
T1 construct: purchased Genentech Inc
T1 sequence (P00750 36-562): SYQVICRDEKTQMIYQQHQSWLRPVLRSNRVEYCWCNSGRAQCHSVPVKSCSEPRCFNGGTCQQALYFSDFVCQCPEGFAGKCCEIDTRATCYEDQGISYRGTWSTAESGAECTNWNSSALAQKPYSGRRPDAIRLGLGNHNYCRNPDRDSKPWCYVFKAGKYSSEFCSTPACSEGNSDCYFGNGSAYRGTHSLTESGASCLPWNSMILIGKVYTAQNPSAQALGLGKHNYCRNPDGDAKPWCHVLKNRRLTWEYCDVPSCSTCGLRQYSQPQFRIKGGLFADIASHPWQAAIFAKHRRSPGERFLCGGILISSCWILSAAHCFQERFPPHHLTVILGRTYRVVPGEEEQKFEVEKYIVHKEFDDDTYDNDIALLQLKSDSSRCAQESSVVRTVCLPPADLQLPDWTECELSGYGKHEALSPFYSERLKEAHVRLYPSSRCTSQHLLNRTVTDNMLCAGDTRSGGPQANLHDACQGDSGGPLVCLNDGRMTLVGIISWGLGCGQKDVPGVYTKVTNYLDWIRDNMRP
Experimental: rt-PA catalytic activity was determined using the substrate, Pefachrome t-PA (CH3SO2-D-hexahydrotyrosine-glycyl-L-arginine-p-nitroaniline, obtained from Pentap harm Ltd.). The substrate was made up in deionized water followed by dilution in HBSA prior to the assay in which the final concentration was 500 micromolar (about 3-times Km). Human rt-PA (Activase®) was obtained from Genentech Inc. The enzyme was reconstituted in deionized water and diluted into HBSA prior to the assay in which the final concentration was 1.0 nM.

human plasmin = target: T2, human plasmin (Homo sapiens, UniProt P00747); assay: Plasmin chromogenic substrate (S-2366) assay; assay type: biochemical; settings: 30 minute preincubation, HBSA buffer
T2 construct: purchased Enzyme Research Laboratories, Inc
T2 sequence (P00747 581-810 limits assumed): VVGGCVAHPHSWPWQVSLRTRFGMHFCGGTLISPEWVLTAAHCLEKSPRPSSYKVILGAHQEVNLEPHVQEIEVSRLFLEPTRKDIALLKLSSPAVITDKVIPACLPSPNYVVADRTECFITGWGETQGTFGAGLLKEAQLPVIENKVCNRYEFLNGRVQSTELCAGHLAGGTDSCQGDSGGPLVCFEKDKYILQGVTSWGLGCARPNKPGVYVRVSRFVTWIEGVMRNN
T2 sequence (P00747 97-580 partner limits assumed): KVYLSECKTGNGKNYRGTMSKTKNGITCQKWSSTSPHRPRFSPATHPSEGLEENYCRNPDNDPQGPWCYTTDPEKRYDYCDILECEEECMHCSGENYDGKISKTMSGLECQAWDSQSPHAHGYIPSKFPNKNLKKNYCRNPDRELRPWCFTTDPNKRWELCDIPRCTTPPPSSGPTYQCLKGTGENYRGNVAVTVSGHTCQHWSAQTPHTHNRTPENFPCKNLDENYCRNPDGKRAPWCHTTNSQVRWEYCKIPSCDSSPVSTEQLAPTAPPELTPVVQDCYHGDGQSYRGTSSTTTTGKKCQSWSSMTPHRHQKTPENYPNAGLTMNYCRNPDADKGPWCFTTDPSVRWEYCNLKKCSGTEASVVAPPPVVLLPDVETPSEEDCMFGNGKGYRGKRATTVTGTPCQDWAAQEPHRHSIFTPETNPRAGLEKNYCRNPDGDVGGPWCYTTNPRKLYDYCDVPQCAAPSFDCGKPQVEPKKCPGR
Experimental: The substrate was made up in deionized water followed by dilution in HBSA prior to the assay in which the final concentration was 300 micromolar (about 2.5-times Km). Purified human plasmin was obtained from Enzyme Research Laboratories, Inc. The enzyme was diluted into HBSA prior to assay in which the final concentration was 1.0 nM.

Urokinase (Abbokinase) = Urokinase (Abbokinase) (Homo sapiens, UniProt P00749); assay: Urokinase chromogenic substrate (S-2444) IC50 assay
Experimental: The buffer used for all assays was HBSA (10 mM HEPES, pH 7.5, 150 mM sodium chloride, 0.1% bovine serum albumin).
The initial velocity of chromogenic substrate hydrolysis was measured by the change in absorbance at 405 nm using a Thermo Max® Kinetic Microplate Reader over a 5 minute period in which less than 5% of the added substrate was utilized.
The assay buffer was HBS (10mM HEPES, 150mM sodium chloride pH 7.4) with 0.1% BSA.

[1] = read-out: uPA IC50, 30 minute preincubation, HBSA buffer

Compound | IC50 (Human rt-PA (Activase)) | IC50 (human plasmin) | IC50 (Urokinase (Abbokinase); [1]) | IC50 (Urokinase (Abbokinase))
C[C@H](NC(=O)[C@@H](CO)NS(=O)(=O)c1ccccc1)C(=O)N[C@H](C=O)CCCN=C(N)N [Compound 28, Benzenesufonyl-D-Ser-L-Ala-L-Arg-al] | > 2500 nM | 250 to 2500 nM | < 100 nM | 
C[C@H](NC(=O)[C@@H](CO)NS(=O)(=O)Cc1ccccc1)C(=O)N[C@H](C=O)CCCN=C(N)N [Compound 29, Benzylsulfonyl-D-Ser-Ala-Arg-al] | > 2500 nM | 250 to 2500 nM | < 100 nM | 
CC(C)COC(=O)N[C@H](CO)C(=O)N[C@@H](C)C(=O)NC(CCCN=C(N)N)C(=O)C(=O)NCCc1ccccc1 (stereo partly drawn) [Compound 30, i-butoxycarbonyl-D-Ser-Ala-Arg-CO-phenethylamide] | > 2500 nM | 250 to 2500 nM | 100 to 250 nM | 
C[C@H](NC(=O)[C@@H](CO)NCCCc1ccccc1)C(=O)N[C@H](C=O)CCCNC(=N)N [Compound 32, N-α-(3-Phenylpropyl)-D-seryl-alanyl-argininal] | > 2500 nM | 250 to 2500 nM | < 100 nM | 
CC[C@@H](NC(=O)OCc1ccccc1)C(=O)N[C@@H](C)C(=O)NC(C=O)CCCNC(=N)N (stereo partly drawn) [Compound 44] | > 2500 nM | 250 to 2500 nM |  | 250 to 2500 nM
C[C@H](NC(=O)[C@@H](CO)NS(=O)(=O)CCCc1ccccc1)C(=O)N[C@H](C=O)CCCNC(=N)N [Compound 48, 3-phenylpropylsulfonyl-D-seryl-alanyl-argininal] | > 2500 nM | 250 to 2500 nM |  | < 100 nM
N=C(N)NCCC[C@@H](C=O)NC(=O)[C@@H]1C[C@H](O)CN1C(=O)[C@@H](CO)NC(=O)OCc1ccccc1 [Compound 49, benzyloxycarbonyl-D-seryl-L-cis-4-hydroxyprolyl-argininal] (Cbz-[dS]-[cisHyp]-Arg-aldehyde) | > 2500 nM | 250 to 2500 nM |  | < 100 nM
N=C(N)NCCC[C@@H](C=O)NC(=O)[C@@H]1C=CCN1C(=O)[C@@H](CO)NC(=O)OCc1ccccc1 [Compound 50, benzyloxycarbonyl-D-seryl-L-3,4-dehydroprolyl-argininal] (Cbz-[dS]-[ΔPro]-Arg-aldehyde) | > 2500 nM | 100 to 250 nM |  | < 100 nM
C#CC[C@H](NC(=O)[C@@H](CO)NC(=O)OCc1ccccc1)C(=O)N[C@H](C=O)CCCNC(=N)N [Compound 51, benzyloxycarbonyl-D-seryl-L-propargylglycyl-argininal] (Cbz-[dS]-[Pra]-Arg-aldehyde) | > 2500 nM | 250 to 2500 nM |  | < 100 nM
C=CC[C@H](NC(=O)[C@@H](CO)NC(=O)OCc1ccccc1)C(=O)N[C@H](C=O)CCCNC(=N)N [Compound 52, benzyloxycarbonyl-D-seryl-L-allylglycyl-argininal] (Cbz-[dS]-[AllylGly]-Arg-aldehyde) | > 2500 nM | 250 to 2500 nM |  | 100 to 250 nM
C[C@H](NC(=O)[C@@H](CO)NS(=O)(=O)/C=C/c1ccccc1)C(=O)N[C@H](C=O)CCCNC(=N)N [Compound 53, trans-β-Styrenesulfonyl-D-seryl-L-alanyl-argininal] | > 2500 nM | 250 to 2500 nM |  | < 100 nM
benzyloxycarbonyl-D-seryl-L-β-cyanoalanine-argininal [Compound 46] | > 2500 nM | 250 to 2500 nM | < 100 nM | 

Further lines, results first:

IC50 (Human rt-PA (Activase)) | IC50 (human plasmin) | IC50 (Urokinase (Abbokinase); [1]) | IC50 (Urokinase (Abbokinase)) | Compound
> 2500 nM | > 2500 nM |  | 250 to 2500 nM | C[C@H](NC(=O)[C@@H](CO)NC(=O)CCC1CCCCC1)C(=O)N[C@H](C=O)CCCNC(=N)N [Compound 35, 3-cyclohexylpropionyl-D-seryl-alanyl-argininal]
> 2500 nM | 250 to 2500 nM |  | < 100 nM | C[C@H](NC(=O)[C@@H](CO)NC(=O)OCC1CCCCC1)C(=O)N[C@H](C=O)CCCNC(=N)N [Compound 36, cyclohexylmethyloxycarbonyl-D-seryl-alanyl-argininal]
> 2500 nM | > 2500 nM |  | 100 to 250 nM | C[C@H](NC(=O)[C@@H](CO)NC(=O)NCC1CCCCC1)C(=O)N[C@H](C=O)CCCNC(=N)N [Compound 37, cyclohexylmethylazacarbonyl-D-seryl-alanyl-argininal]
> 2500 nM | > 2500 nM |  | 100 to 250 nM | C[C@H](NC(=O)[C@@H](CO)NC(=O)NCc1ccccc1)C(=O)N[C@H](C=O)CCCNC(=N)N [Compound 38, benzylazacarbonyl-D-seryl-alanyl-argininal] ({NHBn-CO}-[dS]-Ala-Arg-aldehyde)
> 2500 nM | > 2500 nM |  | 250 to 2500 nM | CC(C)CC(=O)N[C@H](CO)C(=O)N[C@@H](C)C(=O)N[C@H](C=O)CCCNC(=N)N [Compound 39, isovaleryl-D-seryl-alanyl-argininal] (Isovaleryl-[dS]-Ala-Arg-aldehyde)
> 2500 nM | > 2500 nM |  | < 100 nM | CC(C)OC(=O)N[C@H](CO)C(=O)N[C@@H](C)C(=O)N[C@H](C=O)CCCNC(=N)N [Compound 40, isopropyloxycarbonyl-D-seryl-alanyl-argininal]
> 2500 nM | 250 to 2500 nM |  | 250 to 2500 nM | C[C@H](NC(=O)[C@@H](CNC(=O)CCc1ccccc1)NC(=O)OCc1ccccc1)C(=O)N[C@H](C=O)CCCNC(=N)N [Compound 41, N-α-benzyloxycarbonyl-N-β-2-phenylethylcarbonyl-D-2,3-diaminopropionyl-alanyl-argininal] (Cbz-[dDap](Hydrocinnamoyl)-Ala-Arg-aldehyde)
> 2500 nM | 100 to 250 nM |  | 100 to 250 nM | C[C@H](NC(=O)[C@@H](CNC(=O)OCc1ccccc1)NC(=O)OCc1ccccc1)C(=O)N[C@H](C=O)CCCNC(=N)N [Compound 42, N-α-N-β-dibenzyloxycarbonyl-D-2,3-diaminopropionyl-alanyl-argininal] (Cbz-[dDap](Cbz)-Ala-Arg-aldehyde)
> 2500 nM | 250 to 2500 nM |  | 250 to 2500 nM | COC(=O)NC[C@@H](NC(=O)OCc1ccccc1)C(=O)N[C@@H](C)C(=O)N[C@H](C=O)CCCNC(=N)N [Compound 43, N-α-benzyloxycarbonyl-N-β-methyloxycarbonyl-D-2,3-diaminopropionyl-alanyl-argininal] (Cbz-[dDap](Moc)-Ala-Arg-aldehyde)
> 2500 nM | 250 to 2500 nM |  | 100 to 250 nM | N=C(N)NCCC[C@@H](C=O)NC(=O)[C@H](CO)NC(=O)[C@@H](CO)NC(=O)OCc1ccccc1 [Compound 45, benzyloxycarbonyl-D-seryl-L-seryl-argininal] (Cbz-[dS]-Ser-Arg-aldehyde)
> 2500 nM | 250 to 2500 nM |  | < 100 nM | C[C@H](NC(=O)[C@@H](CO)NS(=O)(=O)CCc1ccccc1)C(=O)N[C@H](C=O)CCCNC(=N)N [Compound 47, 2-phenylethylsulfonyl-D-seryl-alanyl-argininal]
